The supplement of paper PMC10307832

Legend:
Test in all cases: relative viability (nuclei count vs DMSO), 5 days (fraction); higher = more cells survive
[1] = compound: C1CSC2=C(C(=O)N1)SC3=C2C=C(C=C3)O [kb NB 142-70] + C[C@]1(O)C[C@@H](c2nc(-c3ccc4ccc(-c5ccccc5)nc4c3)c3c(N)nccn32)C1 [Linsitinib] (partner 1 µM)
Summary of the method: (§1)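 Values are medians from duplicate plates. Each reflects relative viability, defined as the nuclei count of treated wells over that of vehicle wells. Lung cancer cell lines in 1536-well plates were pin-tool dosed one day after seeding with one drug alone or with a fixed anchor-drug dose plus five library-drug doses (not always all listed) in √10 steps, then fixed, stained and imaged at 4× after 5 days.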

[2] = compound: C1CSC2=C(C(=O)N1)SC3=C2C=C(C=C3)O [kb NB 142-70] + CC(=O)c1c(C)c2cnc(Nc3ccc(N4CCNCC4)cn3)nc2n(C2CCCC2)c1=O [Palbociclib] (partner 0.5 µM)
Summary of the method: as §1

[3] = compound: C1CSC2=C(C(=O)N1)SC3=C2C=C(C=C3)O [kb NB 142-70] + CC1(C)CCC(c2ccc(Cl)cc2)=C(CN2CCN(c3ccc(C(=O)NS(=O)(=O)c4ccc(N[C@H](CCN5CCOCC5)CSc5ccccc5)c(S(=O)(=O)C(F)(F)F)c4)cc3)CC2)C1 [Navitoclax] (partner 0.5 µM)
Summary of the method: as §1

[4] = compound: C1CSC2=C(C(=O)N1)SC3=C2C=C(C=C3)O [kb NB 142-70] + C[C@@H](Oc1cc(-c2cnn(C3CCNCC3)c2)cnc1N)c1c(Cl)ccc(F)c1Cl [Crizotinib] (partner 1 µM)
Summary of the method: as §1

[5] = compound: NCC(=O)Nc1ccc(-n2nc(C(F)(F)F)cc2-c2ccc3c(ccc4ccccc43)c2)cc1 + C[C@@H](Oc1cc(-c2cnn(C3CCNCC3)c2)cnc1N)c1c(Cl)ccc(F)c1Cl [Crizotinib] (partner 1 µM)
Summary of the method: as §1

Row | Cell Line | relative viability ([1]; first compound 0.1 µM) | relative viability ([1]; first compound 1 µM) | relative viability ([1]; first compound 3.162 µM) | relative viability ([2]; first compound 0.1 µM) | relative viability ([2]; first compound 1 µM) | relative viability ([2]; first compound 3.162 µM) | relative viability ([3]; first compound 0.1 µM) | relative viability ([3]; first compound 1 µM) | relative viability ([3]; first compound 3.162 µM) | relative viability ([4]; first compound 0.1 µM) | relative viability ([4]; first compound 1 µM) | relative viability ([4]; first compound 3.162 µM) | relative viability ([5]; first compound 0.02 µM) | relative viability ([5]; first compound 0.06325 µM) | relative viability ([5]; first compound 0.2 µM) | relative viability ([5]; first compound 0.6325 µM) | relative viability ([5]; first compound 2 µM)
1 | HOP-62 | 0.996 | 0.906 | 0.945 | 0.496 | 0.473 | 0.441 | 0.994 | 1.11 | 0.968 | 0.869 | 1.02 | 1.03 | 0.579 | 0.921 | 0.942 | 0.884 | 0.927
2 | LC-2-ad | 0.791 | 0.825 | 0.677 | 0.457 | 0.475 | 0.513 | 0.537 | 0.473 | 0.262 | 0.446 | 0.429 | 0.421 | 0.463 | 0.543 | 0.433 | 0.47 | 0.389
3 | LCLC-97TM1 | 0.192 | 0.187 | 0.172 | 0.229 | 0.216 | 0.193 | 0.457 | 0.29 | 0.307 | 0.382 | 0.331 | 0.201 | 0.344 | 0.34 | – | 0.348 | 0.29
4 | LK-2 | 0.751 | 0.384 | 0.245 | 0.661 | 0.476 | 0.352 | 0.879 | 0.723 | 0.464 | 0.225 | 0.226 | 0.204 | 0.247 | 0.234 | 0.232 | 0.236 | 0.244
5 | LOU-NH91 | 0.911 | 0.882 | 0.612 | 0.494 | 0.536 | 0.417 | 0.753 | 0.632 | 0.438 | 0.75 | 0.732 | 0.644 | 0.725 | 0.761 | 0.754 | 0.565 | 0.756
6 | LU99A | 0.519 | 0.518 | 0.341 | 0.379 | 0.447 | 0.413 | 0.845 | 0.816 | 0.598 | 0.577 | 0.506 | 0.397 | 0.547 | 0.654 | 0.593 | 0.554 | 0.573
7 | LXF-289 | 0.914 | 0.92 | 0.916 | 0.578 | 0.613 | 0.567 | 0.938 | 0.986 | 0.942 | 0.776 | 0.796 | 0.744 | 0.834 | 0.821 | 0.799 | 0.823 | 0.779
8 | NCI-H23 | 0.708 | 0.529 | 0.289 | 0.409 | 0.471 | 0.28 | 0.775 | 0.735 | 0.331 | 0.502 | 0.522 | 0.253 | 0.512 | 0.501 | 0.542 | 0.509 | 0.565
9 | NCI-H322M | 0.89 | 1.03 | 0.938 | 0.541 | 0.511 | 0.505 | 1.2 | 1.15 | 1.11 | 1 | 1.1 | 1 | 1.06 | 0.835 | 0.962 | 0.909 | 0.922
10 | NCI-H441 | 0.656 | 0.457 | 0.356 | 0.237 | 0.209 | 0.169 | 0.683 | 0.369 | 0.34 | 0.958 | 0.64 | 0.433 | 1.08 | 0.666 | 0.73 | 0.6 | 0.749
11 | NCI-H460 | 0.704 | 1 | 0.277 | 0.166 | 0.233 | 0.171 | 0.978 | 1.25 | 0.305 | 0.766 | 0.801 | 0.326 | 0.922 | 0.952 | 0.931 | 0.811 | 0.688
12 | NCI-H520 | 0.874 | 0.972 | 0.641 | 0.234 | 0.21 | 0.164 | 1.07 | 1.19 | 0.482 | 0.869 | 0.825 | 0.507 | 0.787 | 1.09 | 0.889 | 0.687 | 0.694
13 | NCI-H647 | 1.1 | 1.2 | 1.17 | 0.289 | 0.372 | 0.414 | 1.16 | 1.19 | 0.842 | 1.08 | 1.27 | 1.12 | 1.17 | 1.14 | 1.13 | 0.976 | 0.747
14 | NCI-H727 | 0.356 | 0.323 | 0.28 | 0.681 | 0.653 | 0.678 | 0.522 | 0.397 | 0.263 | 0.752 | 1.06 | 0.592 | 1.03 | 0.816 | 0.897 | 0.787 | 0.899
15 | NCI-H838 | 0.993 | 1.08 | 0.98 | 0.203 | 0.219 | 0.188 | 1.19 | 1.14 | 1 | 0.782 | 0.914 | 0.877 | 0.856 | 0.903 | 0.879 | 0.813 | 0.761
16 | NCI-H1355 | 0.781 | 0.835 | 0.757 | 0.417 | 0.39 | 0.404 | 1.02 | 0.881 | 0.936 | 1.02 | 1.03 | 1.05 | 0.959 | 1.2 | 1.03 | 0.946 | 1.07
17 | NCI-H1437 | 1.15 | 1.1 | 1.07 | 0.337 | 0.297 | 0.279 | 1.05 | 1.13 | 1.02 | 1.01 | 0.997 | 0.946 | 0.946 | 0.85 | 0.964 | 0.94 | 0.894
18 | NCI-H1651 | 1.04 | 0.929 | 0.376 | 0.527 | 0.555 | 0.526 | 1.07 | 1.03 | 0.39 | 0.908 | 0.842 | 0.879 | 0.803 | 0.853 | 0.875 | 0.881 | 0.952
